From patent US20240199558A1, “2,4,6-TRISUBSTITUTED 1,3,5-TRIAZINES AS MODULATORS OF CX3CR1” (ASTRAZENECA AB, priority 2022, published 2024)

Tests used:
CX3CR1 [1] = target: T1, CX3CR1 (Homo sapiens (Human), UniProt P49238); experiment: hCX3CR1 [3H]-AZD8797 competitive binding assay (filter); conditions: CHO-hCX3CR1 membranes, 2 nM [3H]-AZD8797
Summary of the method: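 Filtration radioligand displacement assay: competitor titrations compete with 2 nM [3H]-AZD8797 for membranes from CHO cells expressing hCX3CR1 (9 μg/well). Incubation was 2 h at room temperature in HEPES pH 7.4 with MgCl2, CaCl2, 0.5% BSA and 1% DMSO. Filters were washed with ice-cold high-salt (500 mM NaCl) buffer, and retained radioactivity was scintillation-counted.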

CX3CR1 [2] = target: T1, CX3CR1; experiment: hCX3CR1 [125I]-CX3CL1 displacement binding (SPA); conditions: CHO-hCX3CR1 membranes, [125I]-CX3CL1, SPA beads
Experimental: hCX3CR1 [^125I]-CX3CL1 Displacement Binding (SPA)
CHO-hCX3CR1 membranes (3 μg per well) together with […] [^125I]-CX3CL1 (Perkin Elmer) and different concentrations of competitor compound were incubated together with 400 μg/well WGA coated PVT SPA beads (Perkin Elmer) in 50 mM HEPES (pH 7.4), 10 mM MgCl2, 1 mM EDTA and 0.1% Gelatin in a Greiner polystyrene flat-bottom 384-well plate. The plate was incubated for 20 h at room temperature before the radioactivity was measured using a MicroBeta Trilux reader (PerkinElmer). The DMSO concentration was held constant at 1%.

T1 sequence (P49238 whole entry): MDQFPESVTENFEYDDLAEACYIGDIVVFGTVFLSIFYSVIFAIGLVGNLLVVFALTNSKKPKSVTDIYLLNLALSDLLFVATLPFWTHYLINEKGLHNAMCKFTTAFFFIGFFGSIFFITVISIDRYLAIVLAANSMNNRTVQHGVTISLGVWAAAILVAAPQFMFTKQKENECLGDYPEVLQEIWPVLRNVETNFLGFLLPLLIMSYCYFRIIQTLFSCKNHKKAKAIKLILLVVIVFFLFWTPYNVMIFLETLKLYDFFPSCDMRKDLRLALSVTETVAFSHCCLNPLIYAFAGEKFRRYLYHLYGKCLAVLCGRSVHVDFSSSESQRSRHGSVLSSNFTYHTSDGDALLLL

Row | Compound | IC50 (CX3CR1 [1]) [nM] | IC50 (CX3CR1 [2]) [nM]
1 | COc1ncc([C@H](C)Cc2nc(N[C@@H](CO)CC(C)C)nc(NS(C)(=O)=O)n2)cc1Cl (single isomer, unassigned) [Example 9, N-(4-((R*)-2-(5-Chloro-6-methoxypyridin-3-yl)propyl)-6-(((R)-1-hydroxy-4-methylpentan-2-yl)amino)-1,3,5-triazin-2-yl)methanesulfonamide] | 205 | > 10000
2 | CC(C)C[C@H](CO)Nc1nc(C[C@H](C)c2ccc(F)cc2)nc(NS(C)(=O)=O)n1 (single isomer, unassigned) [Example 80, N-(4-((S*)-2-(4-Fluorophenyl)propyl)-6-(((R)-1-hydroxy-4-methylpentan-2-yl)amino)-1,3,5-triazin-2-yl)methanesulfonamide] | 2210 | 4900
3 | CC(C)C[C@H](CO)Nc1nc(C[C@@H](C)c2ccc(Cl)cc2F)nc(NS(C)(=O)=O)n1 (single isomer, unassigned) [Example 84, N-(4-((R*)-2-(4-Chloro-2-fluorophenyl)propyl)-6-(((R)-1-hydroxy-4-methylpentan-2-yl)amino)-1,3,5-triazin-2-yl)methanesulfonamide] | 173 | 348
4 | CC(C)C[C@H](CO)Nc1nc(C[C@H](C)c2ccnc(Cl)c2)nc(NS(C)(=O)=O)n1 (single isomer, unassigned) [Example 25, N-(4-((S*)-2-(2-Chloropyridin-4-yl)propyl)-6-(((R)-1-hydroxy-4-methylpentan-2-yl)amino)-1,3,5-triazin-2-yl)methanesulfonamide] | 1350 | 13500
5 | CCOc1cc(C(C)Cc2nc(N[C@@H](CO)CC(C)C)nc(NS(C)(=O)=O)n2)ccn1 (stereo partly drawn) [Example 67, N-(4-(2-(2-Ethoxypyridin-4-yl)propyl)-6-(((R)-1-hydroxy-4-methylpentan-2-yl)amino)-1,3,5-triazin-2-yl)methanesulfonamide] | 359 | 1830
6 | COc1ncc([C@H](C)Cc2nc(N[C@@H](CO)CC(C)C)nc(NS(C)(=O)=O)n2)cc1C (single isomer, unassigned) [Example 15, N-(4-(((R)-1-Hydroxy-4-methylpentan-2-yl)amino)-6-((R*)-2-(6-methoxy-5-methylpyridin-3-yl)propyl)-1,3,5-triazin-2-yl)methanesulfonamide] | 252 | 2990
7 | CC(C)C[C@H](CO)Nc1nc(C[C@H](C)c2ccc(Cl)c(Cl)c2)nc(NS(C)(=O)=O)n1 (relative stereo) [Example 1, N-(4-((R*)-2-(3,4-Dichlorophenyl)propyl)-6-(((R)-1-hydroxy-4-methylpentan-2-yl)amino)-1,3,5-triazin-2-yl)methanesulfonamide] | – | 1970
8 | COc1ncccc1[C@@H](C)Cc1nc(N[C@@H](CO)CC(C)C)nc(NS(C)(=O)=O)n1 (single isomer, unassigned) [Example 18, N-(4-(((R)-1-Hydroxy-4-methylpentan-2-yl)amino)-6-((S*)-2-(2-methoxypyridin-3-yl)propyl)-1,3,5-triazin-2-yl)methanesulfonamide] | 758 | 16700
9 | CC(C)C[C@H](CO)Nc1nc(CC(C)c2ccnc(Cl)c2)nc(NS(C)(=O)=O)n1 (stereo in doubt) [Example 26, N-(4-((R*)-2-(2-chloropyridin-4-yl)propyl)-6-(((R)-1-hydroxy-4-methylpentan-2-yl)amino)-1,3,5-triazin-2-yl)methanesulfonamide] | 44 | 682
10 | COc1ncc([C@@H](C)Cc2nc(N[C@@H](CO)CC(C)C)nc(NS(C)(=O)=O)n2)cc1C (single isomer, unassigned) [Example 16, N-(4-(((R)-1-Hydroxy-4-methylpentan-2-yl)amino)-6-((S*)-2-(6-methoxy-5-methylpyridin-3-yl)propyl)-1,3,5-triazin-2-yl)methanesulfonamide] | 4930 | > 30000
11 | COc1ccc([C@@H](C)Cc2nc(N[C@@H](CO)CC(C)C)nc(NS(C)(=O)=O)n2)c(OC)n1 (single isomer, unassigned) [Example 53, N-(4-((S*)-2-(2,6-Dimethoxypyridin-3-yl)propyl)-6-(((R)-1-hydroxy-4-methylpentan-2-yl)amino)-1,3,5-triazin-2-yl)methanesulfonamide] | 528 | 11000
12 | CC(C)C[C@H](CO)Nc1nc(C[C@H](C)c2ccccc2)nc(NS(C)(=O)=O)n1 (single isomer, unassigned) [Example 147, N-(4-(((R)-1-Hydroxy-4-methylpentan-2-yl)amino)-6-((S*)-2-phenylpropyl)-1,3,5-triazin-2-yl)methanesulfonamide] | – | > 10000
13 | CC(C)C[C@H](CO)Nc1nc(CC(C)c2cccc(C3(O)CC3)c2)nc(NS(C)(=O)=O)n1 (stereo partly drawn) [Example 158, N-(4-(((R)-1-Hydroxy-4-methylpentan-2-yl)amino)-6-(2-(3-(1-hydroxycyclopropyl)phenyl)propyl)-1,3,5-triazin-2-yl)methanesulfonamide] | 2700 | –
14 | CC(C)C[C@H](CO)Nc1nc(CC(C)c2cnc3c(ccn3C)c2)nc(NS(C)(=O)=O)n1 (stereo partly drawn) [Example 117, N-(4-(((R)-1-Hydroxy-4-methylpentan-2-yl)amino)-6-(2-(1-methyl-1H-pyrrolo[2,3-b]pyridin-5-yl)propyl)-1,3,5-triazin-2-yl)methanesulfonamide] | 78 | –
15 | CC(C)C[C@H](CO)Nc1nc(CC(C)c2ccc(-n3ccnn3)cc2)nc(NS(C)(=O)=O)n1 (stereo partly drawn) [Example 64, N-(4-(2-(4-(1H-1,2,3-Triazol-1-yl)phenyl)propyl)-6-(((R)-1-hydroxy-4-methylpentan-2-yl)amino)-1,3,5-triazin-2-yl)methanesulfonamide] | 302 | –
16 | CC(C)C[C@H](CO)Nc1nc(C[C@H](C)c2ccc(N)nc2)nc(NS(C)(=O)=O)n1 (single isomer, unassigned) [Example 50, N-(4-((S*)-2-(6-Aminopyridin-3-yl)propyl)-6-(((R)-1-hydroxy-4-methylpentan-2-yl)amino)-1,3,5-triazin-2-yl)methanesulfonamide] | 342 | –
17 | CC(C)C[C@H](CO)Nc1nc(CC(C)c2ccc(C(=O)N(C)C)c(F)c2)nc(NS(C)(=O)=O)n1 (stereo partly drawn) [Example 116, 2-Fluoro-4-(1-(4-(((R)-1-hydroxy-4-methylpentan-2-yl)amino)-6-(methylsulfonamido)-1,3,5-triazin-2-yl)propan-2-yl)-N,N-dimethylbenzamide] | 282 | –
18 | CC(C)C[C@H](CO)Nc1nc(CC(C)c2ccc3c(c2)oc(=O)n3C)nc(NS(C)(=O)=O)n1 (stereo partly drawn) [Example 100, N-(4-(((R)-1-Hydroxy-4-methylpentan-2-yl)amino)-6-(2-(3-methyl-2-oxo-2,3-dihydrobenzo[d]oxazol-6-yl)propyl)-1,3,5-triazin-2-yl)methanesulfonamide] | 160 | –
19 | CC(C)C[C@H](CO)Nc1nc(CC(C)c2ccc3c(c2)CC(=O)N(C)C3)nc(NS(C)(=O)=O)n1 (stereo partly drawn) [Example 128, N-(4-(((R)-1-Hydroxy-4-methylpentan-2-yl)amino)-6-(2-(2-methyl-3-oxo-1,2,3,4-tetrahydroisoquinolin-6-yl)propyl)-1,3,5-triazin-2-yl)methanesulfonamide] | 241 | –
20 | CC(C)C[C@H](CO)Nc1nc(CC(C)c2ccc(CN3CCOCC3)cc2)nc(NS(C)(=O)=O)n1 (stereo partly drawn) [Example 95, N-(4-(((R)-1-Hydroxy-4-methylpentan-2-yl)amino)-6-(2-(4-(morpholinomethyl)phenyl)propyl)-1,3,5-triazin-2-yl)methanesulfonamide] | 657 | –
21 | CC(C)C[C@H](CO)Nc1nc(CC(C)c2ccc(F)c(C#N)c2)nc(NS(C)(=O)=O)n1 (some centres unmarked) [Example 161] | 1250 | –
22 | COc1cc(C)c([C@@H](C)Cc2nc(N[C@@H](CO)CC(C)C)nc(NS(C)(=O)=O)n2)cn1 (single isomer, unassigned) [Example 14, N-(4-(((R)-1-Hydroxy-4-methylpentan-2-yl)amino)-6-((S*)-2-(6-methoxy-4-methylpyridin-3-yl)propyl)-1,3,5-triazin-2-yl)methanesulfonamide] | > 10000 | –
23 | CC(C)C[C@H](CO)Nc1nc(C[C@H](C)c2cc(F)c(F)c(F)c2)nc(NS(C)(=O)=O)n1 (single isomer, unassigned) [Example 21, N-(4-(((R)-1-Hydroxy-4-methylpentan-2-yl)amino)-6-((S*)-2-(3,4,5-trifluorophenyl)propyl)-1,3,5-triazin-2-yl)methanesulfonamide] | 6410 | –
24 | CC(C)C[C@H](CO)Nc1nc(C[C@H](C)c2c(F)ccc(F)c2F)nc(NS(C)(=O)=O)n1 (single isomer, unassigned) [Example 41, N-(4-(((R)-1-Hydroxy-4-methylpentan-2-yl)amino)-6-((S*)-2-(2,3,6-trifluorophenyl)propyl)-1,3,5-triazin-2-yl)methanesulfonamide] | > 10000 | –
25 | CC(C)C[C@H](CO)Nc1nc(CC(C)c2ccc3ocnc3c2)nc(NS(C)(=O)=O)n1 (stereo partly drawn) [Example 62, N-(4-(2-(Benzo[d]oxazol-5-yl)propyl)-6-(((R)-1-hydroxy-4-methylpentan-2-yl)amino)-1,3,5-triazin-2-yl)methanesulfonamide] | 140 | –
